Test results from US9011853B2, “B7-H4 fusion proteins and methods of use thereof” (Amplimmune, Inc., priority 2009, dated 2015).
Values joined by “and” are separate entries in the source; they are usually repeats but may differ in a detail not shown here. Identical values can stand only once.

Experiments:
MRL/lpr mice = experiment: MRL/lpr lupus mouse model, anti-dsDNA autoantibody ELISA; type: in vivo; details: individual MRL/lpr mouse, plasma diluted 1:2000
Procedure: MRL/lpr mice at 4 weeks of age were used in this experiment. Animals were tagged with metal tags on their right ears for identification. […] In the proof-of-concept study, combination treatments with recombinant murine B7-H4-Ig and CTX were tested. Mice received single or combination treatment of murine B7-H4-Ig (Lot#DEV-110-5-006) at 5 mg/kg with or without CTX at 50 mg/kg via IP injection, once every 2 weeks (FIG. 59). Murine B7-H4-Ig dosing regimen at 5 mg/kg (100 μg/mouse/injection), twice a week, was chosen based on in vivo studies of monoclonal antibody and fusion proteins. […] Blood samples ([…]) were taken from the submandibular vein (ARC SOP 8050.02.08) 3 days before the protein treatment and the every other week during and after treatments. Blood samples were collected in Microtainer® Blood Collection Tubes, and plasma was harvested from the supernatant of blood sample after centrifugation and stored at −80° C. freezer until use.
A positive anti-dsDNA autoantibody control was generated by pooling plasma from 5 aged MRL/lpr mice, approximately 8 months of age. The positive control plasma was aliquoted and stored at −80° C. freezer before use.
The dsDNA solution (10 mg/mL) was first generated by dissolving salmon testes DNA in PBS at 37° C. in a water bath followed by filtration through a 0.45 μm membrane filter. The dsDNA solution was aliquoted and stored at −80° C. before use.
On the day prior to the autoantibody ELISA, 100 μL of the dsDNA stock solution was first added to 10 mL of PBS resulting in a final concentration of 100 μg/ml. […] of the diluted dsDNA was then added to each well of Immulon 2HB 96-well flat bottom microtiter plates. Plates were placed in a humidified incubator at 37° C. without lids for overnight coating. Plates were washed 4 times with 300 μL of PBS/T [0.1% (v/v) Tween-20 (polysorbate 20) in PBS] using a microtiter plate washer (hydroFLEX, TECAN. Software: HydroControl) and then blocked with 200 μL of blocking buffer (10% fetal bovine serum in PBS) at room temperature for at least 1 h followed by 4 washes with 300 μL of PBS/T. The negative control (normal Balb/C mouse plasma, 1:2000 dilution), positive controls (1:5000, 1:10000, 1:20000 dilutions), and samples (1:2000 dilution) were diluted with blocking buffer. Next, 100 μL of each diluted control and sample was added to corresponding wells (duplicate wells) and incubated at room temperature for 2 h or at 4° C. overnight followed by 4 washes with 300 μL of PBS/T. For detection, 100 μL of anti-mouse IgG-HRP (Sigma, A9309, diluted to 1:10000 in blocking buffer) was added to each well and the plate was incubated at room temperature for 1 h followed by 4 washes with 400 μL of PBS/T.
Later, 100 μL of room temperature, pre-warmed TMB Substrate Reagent was added to each well. When the color developed optimally (about 10 min), 100 μL of stop solution (1% sulfuric acid) was added. The plate was then read for absorbance at 450 nm (OD450) using a microtiter plate reader (SPECTRAmax, Molecular Devices. Software: SoftMax Pro5.2).
All the blood samples were analyzed at the end of the study. The OD450 value of test samples was normalized relatively to the internal positive control at the 1:10000 dilution. The relative value rather than the absolute Ab concentration was used for comparison.
Female MRL/lpr mice at age of 4 weeks were divided into 4 groups (FIG. 59): vehicle, CTX alone, murine B7-H4-Ig alone and CTX plus murine B7-H4-Ig combination treatment (Combo). CTX was given IP, 50 mg/kg, once every 2 weeks. Murine B7-H4-Ig was administrated IP, 100 μg (5 mg/kg), and twice every week. The Combo group received CTX injection every 2 weeks and murine B7-H4-Ig 2 times every week at 5 mg/kg. Mice were treated for 7 weeks.
Plasma was collected from MRL/lpr mice pre-treatment (4 wk) and periodically up to 21 weeks of age.

[1] = system: CD4^+CD62L^+ naïve T cells; experiment: Mouse Th17 assay, IL-17A ELISA; type: cell-based
Procedure: CD4^+CD62L^+ naïve T cells were isolated from BALB/c mice as in the above examples, and activated by anti-CD3 and anti-CD28 bound beads in the presence of Th17 differntiation cocktail (TGF-β1 (10 ng/mL), IL-6 (50 ng/mL), IL-23 (4 ng/mL), anti-IL-4 (10 μg/mL), anti-IFN-γ (5 μg/mL) and anti-IL-2 (5 μg/mL)). Murine B7-H4-Ig (10 μg/mL) or retinoic acid (RA) (10 μM) was added to the cultures on day 0, day 1, or day 2 of the 4 day culture. IL-17A levels were measured by ELISA at the end of the 4 day culture.
The Th17 assay is 4 days in duration. In order to determine when B7-H4-Ig is acting, the Th17 assay was performed with the addition of 10 μg/mL of murine B7-H4-Ig, 10 μg/mL of mouse IgG control, or […] retinoic acid on Day 0, Day 1, or Day 2.
Peripheral T cells were obtained from spleens and inguinal lymph nodes of 6-9 week old BALB/c mice by mechanical disruption through a cell strainer followed by red blood cell (RBC) lysis.
Naïve helper T cells (CD4^+CD62L^+) were obtained using the Miltenyi Biotec microbead system. CD4^+ cells are enriched by negative selection, and followed by a positive selection of CD62L^+. In some experiments CD25+ cells were also depleted.
After selection, cells are activated in vitro with anti-CD3/CD28 beads at a 1:1 cell:bead ratio in the presence of the TH17 differentiation cocktail (TGF-β1 (10 ng/ml), IL-6 (50 ng/ml), IL-23 (4 ng/ml), anti-IL-2 (5 μg/ml), anti-IL-4 (10 μg/ml), and anti-IFN-γ (5 μg/ml)). Murine B7-H4-Ig is added at a final concentration of 1.25-20 μg/ml. Retinoic acid (RA) is used as positive control and mouse IgG is used as a negative control.
After 4 days of culture, cultures are spun down and supernatants are harvested and stored at <−65° C. until analyzed for IL-17A levels by ELISA.

DBA/1 mice [2] = experiment: Therapeutic CIA study AA#80 (male mice), disease score; type: in vivo, mouse; details: individual mice (Tag #)
Procedure: (§1) DBA/1 mice (10 per group) aged 7-9 weeks were used for the CIA model. Mice from several vendors (Jackson Laboratories, Harlan Laboratories, and Taconic Farms) were tested and it was determined that Taconic mice are most appropriate for the CIA studies. Taconic mice develop more consistent and severe disease symptoms and show continued disease progression, while mice from the other vendors often show stable, less severe disease, even in the absence of treatment. female (F) mice in AA#79 and male (M) mice in AA#80, were tested to determine which gender to use in future experiments.
(§2) On the day before the study is initiated, the hair on the right flank of each mouse was removed using an electric clipper. A metal identification tag was placed on the right ear of each mouse. On Day 0, mice were immunized with 100 μL of chicken collagen type II/Complete Freund's Adjuvant (CII/CFA) emulsion in the right flank. On Day 20, the hair on the left flank of each mouse was removed using an electric clipper, and on Day 21, mice were immunized with 100 μL of chicken collagen type II/Incomplete Freund's Adjuvant (CII/IFA) emulsion in the left flank. Pre-filled syringes of CII/CFA and CII/IFA emulsion purchased from Hooke Laboratories were used to ensure consistent dosing with and potency of the immunogen.
(§3) Early arthritis symptoms, such as erythema and mild swelling, usually appear on Day 21, and on Day 28, more severe symptoms such as swelling in many digits and inflammation extending to the tarsal joint are typically present. Each limb is evaluated for severity of arthritis symptoms three times a week using a widely accepted arthritis severity score system, shown in Table 2. The scores from each of the 4 limbs are summed to yield the disease score of each mouse. […]
(§4) Treatment was initiated when the average disease score for the study animals was greater than four. This corresponded to Day 29 in AA#79 and Day 24 in […]. By waiting until animals are symptomatic, it was ensured that the model is performed in a therapeutic rather than prophylactic mode.
(§5) B7-H4-Ig, RPA110010, and murine B7-H4-Ig proteins were administered by intraperitoneal (IP) injection 3 times a week for a total of 8 doses. RPA110010 is an extracellular domain variant of B7-H4-Ig, SEQ ID NO:126. Control murine and human IgG proteins were given once a week for a total of 3 doses. […] All proteins were diluted to the desired concentration (500 μg in 500 μL, or 1 mg/mL) with sterile PBS immediately before injection. Vehicle control mice receive Amplimmune formulation buffer diluted 1:10 in PBS, with an injection volume of 500 μL.

DBA/1 mice [3] = experiment: Therapeutic CIA study AA#79 (female mice), disease score; type: in vivo, mouse
Procedure: as §1, §2, §3, §4, §5

Compound: O=P1(N(CCCl)CCCl)NCCCO1 (centres unmarked) [CTX, Cyclophosphamide]
- dsDNA autoantibody (OD450 normalized against positive control diluted at 1:10000) (MRL/lpr mice; mouse age 4 weeks (pre-treatment)): 0.15 and 0.46 and 0.05 and 0.09 and 0.01
- dsDNA autoantibody (OD450 normalized against positive control diluted at 1:10000) (MRL/lpr mice; mouse age 7 weeks): 0.55 and 0.21 and 1.07 and 0.10 (2×)
- dsDNA autoantibody (OD450 normalized against positive control diluted at 1:10000) (MRL/lpr mice; mouse age 8 weeks): 2.50 and 0.33 and 2.03 and 0.17 and 0.06
- dsDNA autoantibody (OD450 normalized against positive control diluted at 1:10000) (MRL/lpr mice; mouse age 9 weeks): 3.46 and 2.09 and 2.26 and 0.79 and 0.26
- dsDNA autoantibody (OD450 normalized against positive control diluted at 1:10000) (MRL/lpr mice; mouse age 10 weeks): 1.50 and 4.05 and 2.95 and 1.97 and 0.39
- dsDNA autoantibody (OD450 normalized against positive control diluted at 1:10000) (MRL/lpr mice; mouse age 11 weeks): 2.97 and 4.67 and 3.75 and 2.21 and 0.55
- dsDNA autoantibody (OD450 normalized against positive control diluted at 1:10000) (MRL/lpr mice; mouse age 15 weeks): 2.93 and 4.87 and 2.62 and 1.76 and 1.11
- dsDNA autoantibody (OD450 normalized against positive control diluted at 1:10000) (MRL/lpr mice; mouse age 19 weeks): 2.61 and 11.76 and 3.05 and 2.58 and 1.26

Compound: CC1=C(/C=C/C(C)=C/C=C/C(C)=C/C(=O)O)C(C)(C)CCC1 [RA, All trans-Retinoic Acid]
- IL-17A expression (ELISA, day 4) ([1]; Th17 promoting conditions, relative to control mouse IgG (FIG. 56)): reduced IL-17A expression
- IL-17A inhibition by time of addition ([1]; murine B7-H4-Ig 10 μg/mL or RA 10 μM (b737 prints 10 mM) added day 0, day 1 or day 2 of 4 day culture (FIG. 53)): inhibited IL-17A most potently when added at the beginning of the assay (day 0)

Compound: Syngis
- AA#80 CIA disease scores (DBA/1 mice [2]; Study Day 20): 4 (3×) and 1 and 2 (2×) and 5 and 3 and 6
- AA#80 CIA disease scores (DBA/1 mice [2]; Study Day 22): 5 (4×) and 2 (2×) and 4 (2×) and 8
- AA#80 CIA disease scores (DBA/1 mice [2]; Study Day 24): 5 (4×) and 6 (3×) and 3 and 8
- AA#80 CIA disease scores (DBA/1 mice [2]; Study Day 27): 6 (4×) and 4 (2×) and 5 and 7 and 8
- AA#80 CIA disease scores (DBA/1 mice [2]; Study Day 29): 6 (2×) and 5 (4×) and 4 and 7 and 11
- AA#80 CIA disease scores (DBA/1 mice [2]; Study Day 31): 8 (3×) and 5 and 6 (3×) and 3 and 11
- AA#80 CIA disease scores (DBA/1 mice [2]; Study Day 34): 10 and 7 (2×) and 8 (4×) and 6 and 11
- AA#80 CIA disease scores (DBA/1 mice [2]; Study Day 36): 10 and 8 (5×) and 7 and 11 and 13
- AA#80 CIA disease scores (DBA/1 mice [2]; Study Day 38): 11 (2×) and 6 (2×) and 8 and 7 (2×) and 10 (2×) and 12
- AA#80 CIA disease scores (DBA/1 mice [2]; Study Day 41): 12 and 13 (2×) and 7 and 8 and 9 and 10 (2×) and 14
- AA#80 CIA disease scores (DBA/1 mice [2]; Study Day 44): 10 and 14 and 7 (3×) and 8 and 11 and 12 and 13
- CIA disease score (DBA/1 mice [3]; AA#79, Study Day 12, individual mouse (Tag#)): 0 (2×) and 1 (3×) and 2
- CIA disease score (DBA/1 mice [3]; AA#79, Study Day 18, individual mouse (Tag#)): 2 (4×) and 1 (2×)
- CIA disease score (DBA/1 mice [3]; AA#79, Study Day 22, individual mouse (Tag#)): 4 and 2 (4×) and 3
- CIA disease score (DBA/1 mice [3]; AA#79, Study Day 25, individual mouse (Tag#)): 2 (4×) and 5 and 3
- CIA disease score (DBA/1 mice [3]; AA#79, Study Day 27, individual mouse (Tag#)): 5 (2×) and 7 and 4 (2×) and 6
- CIA disease score (DBA/1 mice [3]; AA#79, Study Day 29, individual mouse (Tag#)): 6 (3×) and 5 and 4 and 10
- CIA disease score (DBA/1 mice [3]; AA#79, Study Day 32, individual mouse (Tag#)): 10 and 9 (2×) and 7 and 8
- CIA disease score (DBA/1 mice [3]; AA#79, Study Day 34, individual mouse (Tag#)): 10 (2×) and 9 (2×) and 6
- CIA disease score (DBA/1 mice [3]; AA#79, Study Day 36, individual mouse (Tag#)): 11 (2×) and 9 (2×) and 10 and 8
- CIA disease score (DBA/1 mice [3]; AA#79, Study Day 39, individual mouse (Tag#)): 11 (2×) and 8 and 6 and 9 and 12
- CIA disease score (DBA/1 mice [3]; AA#79, Study Day 41, individual mouse (Tag#)): 12 and 10 (2×) and 13 and 6 and 11
- CIA disease score (DBA/1 mice [3]; AA#79, Study Day 43, individual mouse (Tag#)): 12 (2×) and 11 (2×) and 6 and 10
- CIA disease score (DBA/1 mice [3]; AA#79, Study Day 46, individual mouse (Tag#)): 14 (2×) and 11 and 12 and 6 and 10
- CIA disease score (DBA/1 mice [3]; AA#79, Study Day 48, individual mouse (Tag#)): 13 (3×) and 11 and 5 and 12
- CIA disease score (DBA/1 mice [3]; AA#79, Study Day 50, individual mouse (Tag#)): 11 (2×) and 12 (3×) and 9
- CIA disease score (DBA/1 mice [3]; AA#79, Study Day 54, individual mouse (Tag#)): 13 (2×) and 12 (3×) and 8
- CIA disease score (DBA/1 mice [3]; AA#79, Study Day 57, individual mouse (Tag#)): 13 (2×) and 14 and 7 and 12 and 15
